Measured values published in patent US20090215759A1, “MODULATORS FOR AMYLOID BETA” (priority 2008, published 2009).

Q: With `COc1cc(Nc2nccc(N3CCC(O)CC3)n2)ccc1-n1cnc(C)c1` as the compound, how does the melting point read?
A: Its melting point is 197 to 200 °C.

Q: With `Cc1cn(-c2ccc(Nc3nc(C)cc(Cc4ccccc4)n3)cc2F)cn1` as the compound, how does the melting point read?
A: The melting point was 155 to 158 °C.

Q: For `Cc1cc(Cc2ccccc2)nc(Nc2ccc(-n3ccnc3CO)cc2)n1`, which melting point is on record?
A: The melting point was 95 to 98 °C.

Q: With `Cc1cc(Cc2ccccc2)nc(Nc2ccc(-n3cnc(C)n3)c(F)c2)n1` as the compound, how does the melting point read?
A: The melting point was 183 to 185 °C.

Q: Which melting point does the source give for `COc1cc(Nc2nc(-c3ccc(Cl)cc3)cc(C(F)(F)F)n2)ccc1-n1cnc(C)c1` here?
A: The melting point was 202 to 204 °C.

Q: With `COc1cc(Nc2nc(-c3ccc(-n4ccnc4)cc3)cc(C(F)(F)F)n2)ccc1-n1cnc(C)c1` as the compound, how does the melting point read?
A: Its melting point is 248 to 250 °C.

Q: For `COc1cc(Nc2nc(-c3ccc(-n4cccn4)cc3)cc(C(F)(F)F)n2)ccc1-n1cnc(C)c1`, which melting point is on record?
A: Its melting point is 252 to 254 °C.

Q: Which melting point does the source give for `CCOC(=O)c1cnc(Nc2ccc(-n3cnc(C)c3)c(OC)c2)nc1-c1cccc(C#N)c1` here?
A: Its melting point is 195 to 197 °C.

Q: Which melting point does the source give for `CCOC(=O)C(c1ccccc1)c1nc(Nc2ccc(-n3cnc(C)c3)c(OC)c2)ncc1-c1ccccc1` (centres unmarked) here?
A: Its melting point is 84 to 86 °C.

Q: For `CCOC(=O)c1cnc(Nc2ccc(-n3cnc(C)c3)c(F)c2)nc1-c1ccc(Cl)cc1`, which melting point is on record?
A: The melting point was 232 to 234 °C.

Q: Which melting point does the source give for `COc1cc(Nc2nccc(-c3ccc(Cl)cc3)n2)ccc1-n1cnc(C)c1` here?
A: The melting point was 202 to 204 °C.

Q: With `COc1cc(Nc2nccc(-c3cccnc3)n2)ccc1-n1cnc(C)c1` as the compound, how does the melting point read?
A: Its melting point is 204 to 206 °C.

Q: For `Cc1cn(-c2ccc(Nc3nc(-c4ccc(Cl)cc4)cc(C(F)(F)F)n3)cc2F)cn1`, which melting point is on record?
A: Its melting point is 248 to 250 °C.

Q: Which melting point does the source give for `CCOC(=O)c1cnc(Nc2ccc(-n3cnc(C)c3)c(F)c2)nc1-c1ccc(C(F)(F)F)cc1` here?
A: Its melting point is 219 to 221 °C.

Q: Which melting point does the source give for `Cc1cn(-c2ccc(Nc3nccc(-c4ccc(C(F)(F)F)cc4)n3)cc2F)cn1` here?
A: Its melting point is 196 to 197 °C.

Q: Which melting point does the source give for `CCOC(=O)c1cnc(Nc2ccc(-n3cnc(C)c3)c(OC)c2)nc1-c1ccc(Cl)cc1` [Example 28, Ethyl 4-(4-chloro-phenyl)-2-[3-methoxy-4-(4-methyl-imidazol-1-yl)-phenylamino]-pyrimidine-5-carboxylate] here?
A: The melting point was 216 to 218 °C.

Q: Which melting point does the source give for `COc1cc(Nc2nc(C)cc(Cc3ccccc3)n2)ccc1-c1cnc(C)s1` [Example 209, (4-Benzyl-6-methyl-pyrimidin-2-yl)-[3-methoxy-4-(2-methyl-thiazol-5-yl)-phenyl]-amine] here?
A: The melting point was 138 to 141 °C.
